Data: ChEMBL document CHEMBL3885881, “DrugMatrix”

Organism: Rattus norvegicus
Test: DrugMatrix - Regimen: Daily Repeat
Type: toxicity, organism-based, Sprague-Dawley
Parameters: regimen Daily Repeat, gender Male, age 6-8 weeks
Conditions: in vivo, po, route oral GAVAGE, […]; for ABSOLUTE BASOPHIL / ABSOLUTE EOSINOPHIL / ABSOLUTE LYMPHOCYTE / ABSOLUTE MONOCYTE / ABSOLUTE SEGMENTED NEUTROPHIL / BASOPHIL / EOSINOPHIL / ERYTHROCYTE COUNT / HEMATOCRIT / HEMOGLOBIN / LEUKOCYTE COUNT / LYMPHOCYTE / MEAN CORPUSCULAR HEMOGLOBIN / MEAN CORPUSCULAR HEMOGLOBIN CONCENTRATION / MEAN CORPUSCULAR VOLUME / MONOCYTE / NEUTROPHIL / NUCLEATED RED BLOOD CELLS / PLATELET COUNT: tissue Blood; for ALANINE AMINOTRANSFERASE / ALBUMIN / ALKALINE PHOSPHATASE / ASPARTATE AMINOTRANSFERASE / BLOOD UREA NITROGEN / CARBON DIOXIDE / CHLORIDE / CHOLESTEROL / CREATINE PHOSPHOKINASE / CREATININE / GLUCOSE / LACTATE DEHYDROGENASE / LIPASE / PHOSPHORUS / POTASSIUM / SODIUM / TOTAL BILIRUBIN / TOTAL PROTEIN / URIC ACID: tissue Plasma
[1] = 0 mg/kg, 72 h, dose level Control, time 3 day
[2] = 0 mg/kg, 120 h, dose level Control, time 5 day
[3] = 0 mg/kg, dose level Control, time 28 day
[4] = 20 mg/kg, 72 h, dose level Low, time 3 day

For `CCCCCCCCCc1ccc(O)cc1` [4-NONYLPHENOL], the “ABSOLUTE BASOPHIL” value [1] was 0 CELLS/uL, the “ABSOLUTE EOSINOPHIL” value [1] was 0 CELLS/uL and the “ABSOLUTE LYMPHOCYTE” value [1] was 11091.17 CELLS/uL. For the same compound, the “ABSOLUTE MONOCYTE” value [1] was 172.17 CELLS/uL, the “ABSOLUTE SEGMENTED NEUTROPHIL” value [1] was 1186.67 CELLS/uL and the BASOPHIL [1] was 0%. The EOSINOPHIL [1] was 0%, the “ERYTHROCYTE COUNT” value [1] was 5.87 x10E6/uL and the HEMATOCRIT [1] was 36.87%. The HEMOGLOBIN [1] was 14.03 G/DL, the “LEUKOCYTE COUNT” value [1] was 12.45 x10E3/uL and the LYMPHOCYTE [1] was 88.67%. For the same compound, the “MEAN CORPUSCULAR HEMOGLOBIN” value [1] was 23.93 pg, the “MEAN CORPUSCULAR HEMOGLOBIN CONCENTRATION” value [1] was 38.1 G/DL and the “MEAN CORPUSCULAR VOLUME” value [1] was 62.73 fL. The MONOCYTE [1] was 1.5%, the NEUTROPHIL [1] was 9.83% and the “NUCLEATED RED BLOOD CELLS” value [1] was 0 /100WBC. For the same compound, the “PLATELET COUNT” value [1] was 1150.33 x10E3/uL, the “ALANINE AMINOTRANSFERASE” value [1] was 67.17 u/L and the ALBUMIN [1] was 4.03 G/DL. For the same compound, the “ALKALINE PHOSPHATASE” value [1] was 462.5 u/L, the “ASPARTATE AMINOTRANSFERASE” value [1] was 88 u/L and the “BLOOD UREA NITROGEN” value [1] was 13.17 mg/dL. For the same compound, the “CARBON DIOXIDE” value [1] was 29.33 mmol/L, the CHLORIDE [1] was 101 MEQ/L and the CHOLESTEROL [1] was 69.17 mg/dL. The “CREATINE PHOSPHOKINASE” value [1] was 292.5 u/L, the CREATININE [1] was 0.17 mg/dL and the GLUCOSE [1] was 167.5 mg/dL. The “LACTATE DEHYDROGENASE” value [1] was 198.5 u/L, the LIPASE [1] was 10.67 u/L and the PHOSPHORUS [1] was 11.73 mg/dL. The POTASSIUM [1] was 5.91 MEQ/L, the SODIUM [1] was 143.3 MEQ/L and the “TOTAL BILIRUBIN” value [1] was 0.18 mg/dL. The “TOTAL PROTEIN” value [1] was 5.7 G/DL, the “URIC ACID” value [1] was 1.3 mg/dL and the “ABSOLUTE BASOPHIL” value [2] was 0 CELLS/uL. The “ABSOLUTE EOSINOPHIL” value [2] was 64.33 CELLS/uL, the “ABSOLUTE LYMPHOCYTE” value [2] was 12494.67 CELLS/uL and the “ABSOLUTE MONOCYTE” value [2] was 117 CELLS/uL. The “ABSOLUTE SEGMENTED NEUTROPHIL” value [2] was 1340.67 CELLS/uL, the “NUCLEATED RED BLOOD CELLS” value [2] was 0 /100WBC and the “CARBON DIOXIDE” value [2] was 29.17 mmol/L. For the same compound, the “LACTATE DEHYDROGENASE” value [2] was 229.17 u/L, the LIPASE [2] was 10.83 u/L and the “URIC ACID” value [2] was 1.55 mg/dL. For the same compound, the BASOPHIL [3] was 0.42%, the EOSINOPHIL [3] was 0.58% and the “ERYTHROCYTE COUNT” value [3] was 8.06 x10E6/uL. The HEMATOCRIT [3] was 48.44%, the HEMOGLOBIN [3] was 16.34 G/DL and the “LEUKOCYTE COUNT” value [3] was 13.04 x10E3/uL. For the same compound, the LYMPHOCYTE [3] was 85.12%, the “MEAN CORPUSCULAR HEMOGLOBIN” value [3] was 20.26 pg and the “MEAN CORPUSCULAR HEMOGLOBIN CONCENTRATION” value [3] was 33.74 G/DL. The “MEAN CORPUSCULAR VOLUME” value [3] was 60.1 fL, the MONOCYTE [3] was 1.44% and the NEUTROPHIL [3] was 11.28%. The “PLATELET COUNT” value [3] was 1226 x10E3/uL, the “ALANINE AMINOTRANSFERASE” value [3] was 28.6 u/L and the ALBUMIN [3] was 3.94 G/DL. For the same compound, the “ALKALINE PHOSPHATASE” value [3] was 254.6 u/L, the “ASPARTATE AMINOTRANSFERASE” value [3] was 67.8 u/L and the “BLOOD UREA NITROGEN” value [3] was 10.4 mg/dL. For the same compound, the CHLORIDE [3] was 104.6 MEQ/L, the CHOLESTEROL [3] was 57.6 mg/dL and the “CREATINE PHOSPHOKINASE” value [3] was 224.8 u/L. For the same compound, the CREATININE [3] was 0.4 mg/dL, the GLUCOSE [3] was 140.6 mg/dL and the PHOSPHORUS [3] was 10.66 mg/dL. The POTASSIUM [3] was 6.58 MEQ/L, the SODIUM [3] was 148.6 MEQ/L and the “TOTAL BILIRUBIN” value [3] was 0.24 mg/dL. For the same compound, the “TOTAL PROTEIN” value [3] was 6.64 G/DL, the “ABSOLUTE BASOPHIL” value [4] was 0 CELLS/uL and the “ABSOLUTE EOSINOPHIL” value [4] was 45.67 CELLS/uL. The “ABSOLUTE LYMPHOCYTE” value [4] was 11853.67 CELLS/uL, the “ABSOLUTE MONOCYTE” value [4] was 45.67 CELLS/uL and the “ABSOLUTE SEGMENTED NEUTROPHIL” value [4] was 988.33 CELLS/uL. For the same compound, the BASOPHIL [4] was 0%, the EOSINOPHIL [4] was 0.33% and the “ERYTHROCYTE COUNT” value [4] was 5.99 x10E6/uL. For the same compound, the HEMATOCRIT [4] was 37.03%, the HEMOGLOBIN [4] was 14.3 G/DL and the “LEUKOCYTE COUNT” value [4] was 12.93 x10E3/uL. The LYMPHOCYTE [4] was 91.67%, the “MEAN CORPUSCULAR HEMOGLOBIN” value [4] was 23.9 pg and the “MEAN CORPUSCULAR HEMOGLOBIN CONCENTRATION” value [4] was 38.6 G/DL. For the same compound, the “MEAN CORPUSCULAR VOLUME” value [4] was 61.9 fL, the MONOCYTE [4] was 0.33% and the NEUTROPHIL [4] was 7.67%. The “NUCLEATED RED BLOOD CELLS” value [4] was 0 /100WBC, the “PLATELET COUNT” value [4] was 1126 x10E3/uL and the “ALANINE AMINOTRANSFERASE” value [4] was 75.33 u/L. The ALBUMIN [4] was 3.8 G/DL, the “ALKALINE PHOSPHATASE” value [4] was 451.33 u/L and the “ASPARTATE AMINOTRANSFERASE” value [4] was 100 u/L. For the same compound, the “BLOOD UREA NITROGEN” value [4] was 13 mg/dL, the “CARBON DIOXIDE” value [4] was 24.67 mmol/L and the CHLORIDE [4] was 102.67 MEQ/L. The CHOLESTEROL [4] was 62.67 mg/dL, the “CREATINE PHOSPHOKINASE” value [4] was 371 u/L and the CREATININE [4] was 0.19 mg/dL. The GLUCOSE [4] was 168.67 mg/dL, the “LACTATE DEHYDROGENASE” value [4] was 255.33 u/L and the LIPASE [4] was 9.67 u/L. For the same compound, the PHOSPHORUS [4] was 11.97 mg/dL, the POTASSIUM [4] was 5.3 MEQ/L and the SODIUM [4] was 143.8 MEQ/L. For the same compound, the “TOTAL BILIRUBIN” value [4] was 0.2 mg/dL, the “TOTAL PROTEIN” value [4] was 5.33 G/DL and the “URIC ACID” value [4] was 1.77 mg/dL.
